The test system of the experiment is WT Mtb Erdman strain. The experiment in a line: Microplate Alamar Blue Assay (MABA), Mtb growth inhibition. Conditions: Mycobacterium tuberculosis, ERDMAN, 168 h, Middlebrook 7H9 media, 7 days at 37° C. in 5% CO2. Type of experiment: cell-based, Mycobacterium tuberculosis.

This note sets out measurements from patent US20240279236A1, “COMPOUNDS AND METHODS OF TREATING TUBERCULOSIS” (Fimbrion Therapeutics, Inc., priority 2021, published 2024).

As a reminder, the IC50 is the concentration that inhibits the measured activity by half.

`Cc1cc2c(NCCCc3ccccc3)nc(-c3nnc[nH]3)nc2s1` [Example 129, 6-methyl-N-(3-phenylpropyl)-2-(4H-1,2,4-triazol-3-yl)thieno[2,3-d]pyrimidin-4-amine] displayed a 50% inhibitory concentration (IC50) of 5600 nM.

`Cc1cc2c(NCCCc3ccccc3)nc(-c3cn[nH]c3)nc2s1` [Example 130, 6-methyl-N-(3-phenylpropyl)-2-(1H-pyrazol-4-yl)thieno[2,3-d]pyrimidin-4-amine]: 2200 nM corresponded to half-maximal inhibition (IC50).

Compound `Cc1cc2c(NCCCc3ccccc3)nc(-n3ccnc3)nc2s1` [Example 131, 2-(1H-imidazol-1-yl)-6-methyl-N-(3-phenylpropyl)thieno [2,3-d]pyrimidin-4-amine] yielded a half-maximal inhibitory concentration (IC50) of 3000 nM.

Consider `Cc1ccc(-c2nc(NCCCc3ccccc3)c3cc(C)sc3n2)o1` [Example 132, 6-methyl-2-(5-methylfuran-2-yl)-N-(3-phenylpropyl)thieno [2,3-d]pyrimidin-4-amine], for which the 50% inhibitory concentration (IC50) worked out at 6600 nM.

On to `Cc1cc2c(NCCCc3ccccc3)nc(-c3cnn(C)c3)nc2s1` [Example 133, 6-methyl-2-(1-methyl-1H-pyrazol-4-yl)-N-(3-phenylpropyl)thieno [2,3-d]pyrimidin-4-amine], for which the IC50 amounted to 270 nM.

Take `Cc1cc2c(NCCCc3ccccc3)nc(CC(C)C)nc2s1` [Example 134, 2-isobutyl-6-methyl-N-(3-phenylpropyl)thieno [2,3-d]pyrimidin-4-amine]: the half-maximal inhibitory concentration (IC50) came to 440 nM.

Turning to `Cc1cc2c(NCCCc3ccccc3)nc(C(C)Cl)nc2s1` (stereo not drawn) [Example 135, 2-(1-chloroethyl)-6-methyl-N-(3-phenylpropyl)thieno [2,3-d]pyrimidin-4-amine], the IC50 was determined as 230 nM.

As to `CCc1nc(NCCCc2ccc(OC(F)(F)F)c(C)c2)c2cc(C)sc2n1` [Example 136, 2-ethyl-6-methyl-N-(3-(3-methyl-4-(trifluoromethoxy)phenyl)propyl)thieno [2,3-d]pyrimidin-4-amine], the IC50 is 690 nM.

In the case of `Cc1cc2c(NCCCc3ccccc3)nc(Cc3ccc(F)cc3)nc2s1` [Example 137, 2-(4-fluorobenzyl)-6-methyl-N-(3-phenylpropyl)thieno [2,3-d]pyrimidin-4-amine], the concentration for half-maximal inhibition (IC50) was above 10000 nM.

`Cc1cc2c(NCCCc3ccccc3)nc(CCc3ccccc3)nc2s1` [Example 138, 6-methyl-2-phenethyl-N-(3-phenylpropyl)thieno [2,3-d]pyrimidin-4-amine] registered an IC50 above 10000 nM.

Regarding `Cc1cc(-c2nc(NCCCc3ccccc3)c3cc(C)sc3n2)c(C)o1` [Example 139, 2-(2,5-dimethylfuran-3-yl)-6-methyl-N-(3-phenylpropyl)thieno [2,3-d]pyrimidin-4-amine], the 50% inhibitory concentration (IC50) was above 10000 nM.

Compound `Cc1cc(Cc2nc(NCCCc3ccccc3)c3cc(C)sc3n2)no1` [Example 140, 6-methyl-2-((5-methylisoxazol-3-yl)methyl)-N-(3-phenylpropyl)thieno [2,3-d]pyrimidin-4-amine] displayed an IC50 above 10000 nM.

For the compound `Cc1nc(-c2nc(NCCCc3ccccc3)c3cc(C)sc3n2)co1` [Example 141, 6-methyl-2-(2-methyloxazol-4-yl)-N-(3-phenylpropyl)thieno [2,3-d]pyrimidin-4-amine], the half-maximal inhibitory concentration (IC50) worked out at 1200 nM.

For `Cc1cc2c(NCCCc3ccccc3)nc(SCc3ccccc3)nc2s1` [Example 142, 2-(benzylthio)-6-methyl-N-(3-phenylpropyl)thieno [2,3-d]pyrimidin-4-amine], the concentration for half-maximal inhibition (IC50) is above 10000 nM.

With `Cc1cc2c(NCCCc3ccccc3)nc(-c3ncon3)nc2s1` [Example 143, 6-methyl-2-(1,2,4-oxadiazol-3-yl)-N-(3-phenylpropyl)thieno [2,3-d]pyrimidin-4-amine], the IC50 came to 220 nM. This lies in the sub-micromolar range.

`Cc1nc2c(N[C@@H]3C[C@H]3c3ccc(F)c(F)c3)nc(-c3ccc(C(F)(F)F)cn3)nc2s1` [Example 144, N-((1R,2S)-2-(3,4-difluorophenyl)cyclopropyl)-2-methyl-5-(5-(trifluoromethyl)pyridin-2-yl)thiazolo[5,4-d]pyrimidin-7-amine] showed an IC50 above 10000 nM.

In the case of `Cc1nc2c(NCCCc3ccccc3)nc(-c3ccc(C(F)(F)F)cn3)nc2s1` [Example 145, 2-methyl-N-(3-phenylpropyl)-5-(5-(trifluoromethyl)pyridin-2-yl)thiazolo[5,4-d]pyrimidin-7-amine], the IC50 was 7300 nM.

`Cc1nc2c(N[C@@H]3C[C@H]3c3ccc(F)c(F)c3)nc(-c3ccc(F)cn3)nc2s1` [Example 146, N-((1R,2S)-2-(3,4-difluorophenyl)cyclopropyl)-5-(5-fluoropyridin-2-yl)-2-methylthiazolo[5,4-d]pyrimidin-7-amine] came in with an IC50 of 5100 nM. This IC50 and that of the compound before are within 1.5-fold of each other.

`Cc1nc2c(NCCCc3ccccc3)nc(-c3ccc(F)cn3)nc2s1` [Example 147, 5-(5-fluoropyridin-2-yl)-2-methyl-N-(3-phenylpropyl)thiazolo [5,4-d]pyrimidin-7-amine] had an IC50 of 2100 nM.

On to `Cc1nc2c(N[C@@H]3C[C@H]3c3ccc(F)c(F)c3)nc(-c3ccncn3)nc2s1` [Example 148, N-((1R,2S)-2-(3,4-difluorophenyl)cyclopropyl)-2-methyl-5-(pyrimidin-4-yl)thiazolo[5,4-d]pyrimidin-7-amine], for which the half-inhibitory concentration (IC50) is above 10000 nM.

Regarding `Cc1nc2c(NCCCc3ccccc3)nc(-c3ccncn3)nc2s1` [Example 149, 2-methyl-N-(3-phenylpropyl)-5-(pyrimidin-4-yl)thiazolo[5,4-d]pyrimidin-7-amine], it took 2000 nM to reach half-maximal inhibition (IC50). This lies in the single-digit micromolar range.

Compound `CCOc1nc(N[C@@H]2C[C@H]2c2ccc(F)c(F)c2)c2cc(C)sc2n1` [Example 150, N-((1R,2S)-2-(3,4-difluorophenyl)cyclopropyl)-2-ethoxy-6-methylthieno[2,3-d]pyrimidin-4-amine] returned a 50% inhibitory concentration (IC50) of 380 nM. Compared with the last compound, the IC50 is about 5.3-fold lower.

Consider `COc1nc(N[C@@H]2C[C@H]2c2ccc(F)c(F)c2)c2cc(C)sc2n1` [Example 151, N-((1R,2S)-2-(3,4-difluorophenyl)cyclopropyl)-2-methoxy-6-methylthieno[2,3-d]pyrimidin-4-amine], for which half-maximal inhibition (IC50) required 260 nM.

In the case of `Cc1cc2c(NC/C=C/c3ccccc3)nc(C(F)(F)F)nc2s1` [Example 152, N-cinnamyl-6-methyl-2-(trifluoromethyl) thieno[2,3-d] pyrimidin-4-amine], inhibition was half-maximal at 440 nM (IC50).

In the case of `Cc1cc2c(N[C@@H]3C[C@H]3c3ccc(F)c(F)c3)nc(Oc3ccccc3)nc2s1` [Example 153, N-((1R,2S)-2-(3,4-difluorophenyl)cyclopropyl)-6-methyl-2-phenoxythieno[2,3-d]pyrimidin-4-amine], the 50% inhibitory concentration (IC50) was above 10000 nM.

For `Cc1cc2c(NCCCc3ccccc3)nc(Sc3ccccc3)nc2s1` [Example 154, 6-methyl-N-(3-phenylpropyl)-2-(phenylthio)thieno[2,3-d]pyrimidin-4-amine], the IC50 was above 10000 nM.

`Cc1cc2c(N[C@@H]3C[C@H]3c3ccc(F)c(F)c3)nc(Sc3ccccc3)nc2s1` [Example 155, N-((1R,2S)-2-(3,4-difluorophenyl)cyclopropyl)-6-methyl-2-(phenylthio)thieno[2,3-d]pyrimidin-4-amine] showed a half-inhibitory concentration (IC50) above 10000 nM.

Consider `Cc1cc2c(NCCCc3ccccc3)nc(N=[N+]=[N-])nc2s1` [Example 156, 2-azido-6-methyl-N-(3-phenylpropyl)thieno [2,3-d]pyrimidin-4-amine], for which the IC50 was determined as 160 nM.

Turning to `Cc1cc2c(NCCCc3ccncc3)nc(C(F)(F)F)nc2s1` [Example 157, 6-methyl-N-(3-(pyridin-4-yl)propyl)-2-(trifluoromethyl) thieno[2,3-d] pyrimidin-4-amine], the IC50 was above 10000 nM.

Turning to `Cc1cc2c(NCCCc3cccnc3)nc(C(F)(F)F)nc2s1` [Example 158, 6-methyl-N-(3-(pyridin-3-yl)propyl)-2-(trifluoromethyl) thieno[2,3-d] pyrimidin-4-amine], the half-inhibitory concentration (IC50) was above 6900 nM.

In turn, `Cc1cc2c(NCCCc3ccccn3)nc(C(F)(F)F)nc2s1` [Example 159, 6-methyl-N-(3-(pyridin-2-yl)propyl)-2-(trifluoromethyl)thieno [2,3-d]pyrimidin-4-amine] displayed a concentration for half-maximal inhibition (IC50) above 10000 nM.

In turn, `Cc1cc2c(NCCC(c3ccccc3)c3ccccc3)nc(C(F)(F)F)nc2s1` [Example 160, N-(3,3-diphenylpropyl)-6-methyl-2-(trifluoromethyl) thieno[2,3-d] pyrimidin-4-amine] came in with an IC50 of 1100 nM.

The compound `COc1ccccc1CCCNc1nc(C(F)(F)F)nc2sc(C)cc12` [Example 161, N-(3-(2-methoxyphenyl)propyl)-6-methyl-2-(trifluoromethyl) thieno[2,3-d]pyrimidin-4-amine] yielded a 50% inhibitory concentration (IC50) of 4400 nM.

`Cc1cc2c(NCC#Cc3ccccc3)nc(C(F)(F)F)nc2s1` [Example 162, 6-methyl-N-(3-phenylprop-2-yn-1-yl)-2-(trifluoromethyl) thieno[2,3-d] pyrimidin-4-amine]: the IC50 stood at 6000 nM.

Regarding `Cc1cc2c(NCC(O)Cc3ccccc3)nc(C(F)(F)F)nc2s1` (stereo not drawn) [Example 163, 1-((6-methyl-2-(trifluoromethyl)thieno[2,3-d]pyrimidin-4-yl)amino)-3-phenylpropan-2-ol], the IC50 was above 10000 nM.

`Cc1cc2c(NCCCn3cccc3)nc(C(F)(F)F)nc2s1` [Example 164, N-(3-(1H-pyrrol-1-yl)propyl)-6-methyl-2-(trifluoromethyl) thieno[2,3-d] pyrimidin-4-amine]: the IC50 amounted to 1700 nM.

With `Cc1cc2c(NCCCN3CCCc4ccccc43)nc(C(F)(F)F)nc2s1` [Example 165, N-(3-(3,4-dihydroquinolin-1(2H)-yl)propyl)-6-methyl-2-(trifluoromethyl) thieno[2,3-d] pyrimidin-4-amine], inhibition was half-maximal at 2000 nM (IC50).

The compound `Cc1cc2c(NCCCc3ccccc3)nc(C(F)(F)F)nc2s1` [Example 166, 6-methyl-N-(3-phenylpropyl)-2-(trifluoromethyl) thieno[2,3-d] pyrimidin-4-amine] gave an IC50 below 510 nM.

Turning to `Cc1cc2c(N[C@@H]3C[C@H]3c3ccccc3)nc(C(F)(F)F)nc2s1` [Example 167, 6-methyl-N-((1R,2S)-2-phenylcyclopropyl)-2-(trifluoromethyl) thieno[2,3-d] pyrimidin-4-amine], 490 nM corresponded to half-maximal inhibition (IC50).
